Results taken from US20130143886A1, “METHODS FOR PRESERVING AND/OR INCREASING RENAL FUNCTION USING XANTHINE OXIDOREDUCTASE INHIBITORS” (priority 2006, published 2013).
“Also recorded” adds a separate entry of the source.

Assays:
[1] = system: human subjects with a history of nephrolithiasis; assay: Adverse events and discontinuations in the double-blind and open-label febuxostat study; format: in vivo
Method: (1) febuxostat 40 mg per day, (2) febuxostat 80 mg per day, (3) febuxostat 120 mg per day, or (4) placebo. Subjects completing the double-blind study entered an open-label, long-term study and began treatment with 80 mg febuxostat per day. Febuxostat doses could be titrated over the initial 6 months to 40 mg or 120 mg febuxostat per day based on the subjects' serum urate levels and the occurrence of adverse events.

[2] = system: remnant kidney (RK) rats; assay: Micropuncture procedure to assess glomerular hemodynamics; format: in vivo, Male Wistar rats; conditions: for GFR / Kf / PGC / QA / SNGFR / MAP: end of four weeks; for MAP: under anesthesia
Method: Male Wistar rats (295-340 g) were used to produce rats with remnant kidney (RK) as follows. […] Rats were then assigned to one of four treatment groups: Group 1, RK control rats (n=7); Group 2, RK+febuxostat (Fx) rats (n=8); […] Oxonic acid (OA) (Sigma-Aldrich, St Louis Mo., USA), administered at 750 mg/kg body weight daily by oral gavage, was given starting the day after the 5⁄6 nephrectomy. […] All groups were treated for four weeks. Body weight (beginning just before surgery) and food and water intakes were measured daily. Systolic blood pressure, measured in conscious rats by a tail cuff sphygmomanometer, and plasma uric acid (UA) levels were measured at just before surgery (namely, at baseline) and at the end of the four weeks. Proteinuria was measured at baseline and at the end of two and four weeks. A renal micropuncture procedure along with systemic blood pressure monitoring under pentobarbital anesthesia was performed at the end of four weeks followed by morphologic evaluation of the renal preglomerular microvasculature. Animals were anesthetized with pentobarbital sodium (30 mg/kg, intraperitoneal (ip)) and placed on a thermoregulated table to maintain body temperature at 37° C. Trachea, jugular veins, femoral arteries and the left ureter were catheterized with polyethylene tubing (PE-240, PE-50, and PE-10). The left kidney was exposed, placed in a Lucite holder, sealed with agar, and covered with Ringer's solution. Mean arterial pressure (MAP) was monitored with a pressure transducer (Model p23 db; Gould, San Juan, Puerto Rico) connected to the catheter in the femoral artery and recorded on a polygraph (Grass Instruments, Quincy, Mass., USA). Blood samples were taken periodically and replaced with blood from a donor rat. Rats were maintained under euvolemic conditions by infusion of 10 mL/kg of body weight of isotonic rat plasma during surgery, followed by an infusion of 25%, polyfructosan, at 2.2 ml/h (Inutest; Fresenius Kabi, Linz, Austria). After 60 minutes, five to seven samples of proximal tubular fluid were obtained to determine flow rate and polyfructosan concentrations. Intratubular pressure under free-flow (FF) and stop-flow (SFP) conditions and peritubular capillary pressure (Pc) were measured in other proximal tubules with a servo-null device (Servo Nulling Pressure System; Instrumentation for Physiology and Medicine, San Diego, Calif., USA). Glomerular colloid osmotic pressure was estimated from protein concentrations obtained from blood of the femoral artery (Ca) and surface efferent arterioles (Ce). Polyfructosan was measured in plasma and urine samples by the anthrone-based technique described by Davidson and […] in “Simplification of the anthrone method for the determination of inulin in clearance studies,” J Lab Clin Med. 62:351-356 (1963), the contents of which are herein incorporated by reference. In brief, plasma samples were deproteinated first with trichloroacetic acid. After centrifugation, the supernatant was used for polyfructosan measurement. Polyfructosan concentrations in plasma and urine samples were assessed by the addition of anthrone reagent followed by incubation at 45° C. for 50 minutes and reading in a spectrophotometer set at wavelength of 620 nm. […] Total GFR was calculated using the following formula: GFR=(U×V)/P, where U is the polyfructosan concentration in urine, V is urine flow rate, and P is the polyfructosan concentration in plasma. The volume of fluid collected from individual proximal tubules was estimated from the length of the fluid column in a constant-bore capillary tube of known internal diameter. The concentration of tubular polyfructosan was measured by the microfluorometric method described by Vurek and Pegram in “Fluorometric method for the determination of nanogram quantities of inulin,” Anal Biochem 16:409-419 (1966), the contents of which are herein incorporated by reference. […]

[3] = system: remnant kidney (RK) rats; assay: Renal arteriolar morphology; format: in vivo, Male Wistar rats
Method: Male Wistar rats (295-340 g) were used to produce rats with remnant kidney (RK) as follows. […] Rats were then assigned to one of four treatment groups: Group 1, RK control rats (n=7); Group 2, RK+febuxostat (Fx) rats (n=8); Group 3, RK+oxonic acid (OA) rats (n=6); and Group 4, RK+OA+Fx (n=10). Oxonic acid (OA) (Sigma-Aldrich, St Louis Mo., USA), administered at 750 mg/kg body weight daily by oral gavage, was given starting the day after the 5⁄6 nephrectomy. Beginning immediately following the surgery, febuxostat was administered in drinking water at 30 mg/L (3-4 mg/kg/day), whereas the respective controls received only drinking water (with 3.5 mg/L of NaCl added to keep an equivalent salt concentration to the Fx-containing water). After the micropuncture study, kidneys were washed by perfusion with phosphate-buffered saline and then fixed with 4% paraformaldehyde. Renal biopsies were embedded in paraffin. Sections of 4-μm thick fixed tissue were stained with periodic acid Schiff (PAS) reagent and Masson's trichrome staining. Arteriolar morphology was assessed by indirect peroxidase immunostaining for alpha-smooth muscle actin (DAKO Corp, Carpinteria, Calif., USA). Renal sections incubated with normal rabbit serum were used as negative controls for immunostaining against alpha smooth-muscle actin. For each arteriole, the outline of the vessel and its internal lumen (excluding the endothelium) were generated using computer analysis to calculate the total medial area (outline inline), in 10 arterioles per biopsy. The media/lumen ratio was calculated by the outline/inline relationship (See, Sanchez-Lozada L G et al., “Mild hyperuricemia induces glomerular hypertension in normal rats”, Am J Physiol Renal Physiol 283:[…]-[…] (2002); Sanchez-Lozada L G, et al., “Mild hyperuricemia induces vasoconstriction and maintains glomerular hypertension in normal and remnant kidney rats,” Kidney Int 67:237-247 (2005), the contents of each are herein incorporated by reference). Quantifications were performed blinded.

[4] = number of subjects, N = 18, open-label study
[5] = RK + OA + Fx group (OA-induced hyperuricemia)
[6] = RK rats (RK + Fx or RK + OA group)

Cc1nc(-c2ccc(OCC(C)C)c(C#N)c2)sc1C(=O)O [febuxostat, 2-[3-cyano-4-(2-methylpropoxy)phenyl]-4-methylthiazole-5-carboxylic acid]
Diarrhea (excluding infectious) [1, 4]: 7
Edema NEC [1, 4]: 3
Gastrointestinal and Abdominal Pains (excluding oral and throat) [1, 4]: 3
Joint Related Signs and Symptoms [1, 4]: 6
Lower Respiratory Tract and Lung Infections [1, 4]: 5
Musculoskeletal and Connective Tissue Signs and Symptoms NEC [1, 4]: 5
Non-Site Specific Injuries [1, 4]: 4
Rashes, Eruptions and Exanthems NEC [1, 4]: 3
Total Subjects with ≧1 AE [1, 4]: 17
Upper Respiratory Infections [1, 4]: 12
Urinary Tract Infections [1, 4]: 3
Serum creatinine at Withdrawal (adverse event Increased Creatinine) ([1]; one subject, open-label, Baseline: 1.6 mg/dL): 2.1 mg/dL
Serum creatinine at Follow-up (adverse event Increased Creatinine) ([1]; one subject, Follow-up Day 163, two weeks off study medication): 1.9 mg/dL
GFR [2, 5]: 0.44 ± 0.05 mL/min
Kf [2, 5]: 0.037 ± 0.004 nL/s · mmHg
PGC [2, 5]: 52.0 ± 1.2 mmHg
QA [2, 5]: 151 ± 19 nL/min
SNGFR [2, 5]: 42.2 ± 4.9 nL/min
MAP [2, 5]: 172 ± 8 mmHg
GFR [2, 6]: 0.51 ± 0.04 mL/min
Kf [2, 6]: 0.035 ± 0.005 nL/s · mmHg
PGC [2, 6]: 52.2 ± 1.9 mmHg
QA [2, 6]: 142 ± 11 nL/min
SNGFR [2, 6]: 36.7 ± 3.1 nL/min
MAP [2, 6]: 189 ± 8 mmHg
GFR (in words) ([2]; RK+Fx and RK+OA+Fx rats vs the two untreated groups): increase GFR compared to the two untreated groups
Single-nephron hyperfiltration (in words) ([2]; RK+Fx and RK+OA+Fx rats, normal glomerular pressure and plasma flow maintained): prevented single-nephron hyperfiltration
Afferent arteriolar resistances (in words) ([2]; RK+OA+Fx rats vs untreated cohorts): higher afferent arteriolar resistances compared to their respective untreated cohorts
Thickening of preglomerular vessels / afferent arteriole (in words) ([3]; RK rats vs RK control group): prevented the thickening of preglomerular vessels
Additional thickening of the afferent arteriole (in words) ([3]; RK+OA rats treated with febuxostat): prevented
Media/lumen (M/L) ratio (in words) ([3]; febuxostat-treated rats vs respective untreated cohorts): no statistically significant differences; also recorded: tendency for the M/L ratio to be lower
